{
  "source": "patent US12442035B2",
  "about": "“Compositions and methods for detecting antibiotic responsive mRNA expression signatures and uses thereof” (THE BROAD INSTITUTE, INC., priority 2018, dated 2025)",
  "key": {"[1]": {"tested_on": "E. coli clinical isolates", "experiment": "RNA-Seq transcriptional response to antibiotic exposure, GO term enrichment", "format": "cell-based, Escherichia coli", "settings": "CLSI breakpoint concentration, 0, 10, 30, 60 minutes"}, "[2]": {"tested_on": "K. pneumoniae clinical isolates", "experiment": "Standard broth microdilution MIC", "format": "cell-based, Klebsiella pneumoniae", "text": "(§3) All strains in this study (Table 7) were obtained from clinical or reference microbiological laboratories, including both local hospitals and MDRO strain collections from the Centers for Disease Control's Antibiotic Resistance Isolate Bank (see e.g., World Wide Web at (www).cdc.gov/ARIsolateBank/) and the New York State Department of Health."}, "[3]": {"tested_on": "K. pneumoniae clinical isolates", "experiment": "RNA-Seq transcriptional response to antibiotic exposure, GO term enrichment", "format": "cell-based, Klebsiella pneumoniae", "settings": "CLSI breakpoint concentration, 0, 10, 30, 60 minutes", "source_text": "(§1) Fisher's combined probability test was used to select only those genes whose expression after antibiotic treatment was statistically distinguishable from its expression at any timepoint in the untreated samples. Gene ontology (GO) terms were assigned using blast2GO (version 1.4.4), with hypergeometric testing for enrichment. For each pathogen-antibiotic pair, the fold-change threshold in DESeq2 used to test statistical significance was increased to select 60-100 antibiotic-responsive transcripts with maximal stringency, a number readily accommodated by the NanoString® assay format. […] As with responsive genes, the fold-change threshold was varied in order to select the top 10-20 control transcripts. […] See Supplemental Methods sections below for further details.\n(§2) After antibiotic treatment as described in the above Materials and Methods section, cells were pelleted, resuspended in 0.5 mL Trizol reagent (ThermoFisher Scientific), transferred to 1.5 mL screw-cap tubes containing 0.25 mL of 0.1 mm diameter Zirconia/Silica beads (BioSpec Products), and lysed mechanically via bead-beating for 3-5 one-minute cycles on a Minibeadbeater-16 (BioSpec) or one 90-second cycle at 10 m/sec on a FastPrep (MP Bio). After addition of 0.1 mL chloroform, each sample tube was mixed thoroughly by inversion, incubated for 3 minutes at room temperature, and centrifuged at 12,000×g for 15 minutes at 4° C. […]"}, "[4]": {"tested_on": "A. baumannii clinical isolates", "experiment": "RNA-Seq transcriptional response to antibiotic exposure, GO term enrichment", "format": "cell-based, Acinetobacter baumannii", "settings": "CLSI breakpoint concentration, 0, 10, 30, 60 minutes", "source_text": "as §1, §2"}, "[5]": {"tested_on": "E. coli clinical isolates", "experiment": "Standard broth microdilution MIC", "format": "cell-based, Escherichia coli", "text": "as §3"}, "[6]": {"tested_on": "A. baumannii clinical isolates", "experiment": "Standard broth microdilution MIC", "format": "cell-based, Acinetobacter baumannii", "text": "as §3"}},
  "data": [
    {"substance": "gentamicin", "values": [
      {"measurement": "Gene ontology enrichment of antibiotic-responsive transcripts", "setting": "[1]", "value": "induced the unfolded protein response and quinone binding"},
      {"measurement": "gent MIC", "setting": "[2]; KpGent strain AR0042", "value": 32, "unit": "µg/mL"},
      {"measurement": "gent MIC", "setting": "[2]; KpGent strain AR0043", "value": 1, "unit": "µg/mL"},
      {"measurement": "gent MIC", "setting": "[2]; KpGent strain AR0076", "value": 32, "unit": "µg/mL"},
      {"measurement": "gent MIC", "setting": "[2]; KpGent strain AR0080", "value": 2, "unit": "µg/mL"},
      {"measurement": "gent MIC", "setting": "[2]; KpGent strain ATCC 700721", "value": ">32", "unit": "µg/mL"},
      {"measurement": "gent MIC", "setting": "[2]; KpGent strain BAC0800007138", "value": 0.5, "unit": "µg/mL"},
      {"measurement": "gent MIC", "setting": "[2]; KpGent strain BIDMC_2A", "value": 2, "unit": "µg/mL"},
      {"measurement": "gent MIC", "setting": "[2]; KpGent strain BIDMC_34", "value": 32, "unit": "µg/mL"},
      {"measurement": "gent MIC", "setting": "[2]; KpGent strain BIT-10", "value": 4, "unit": "µg/mL"},
      {"measurement": "gent MIC", "setting": "[2]; KpGent strain BWH_15", "value": 4, "unit": "µg/mL"},
      {"measurement": "gent MIC", "setting": "[2]; KpGent strain IDR1600031102-01-00", "value": ">32", "unit": "µg/mL"},
      {"measurement": "gent MIC", "setting": "[2]; KpGent strain IDR1600039511-01-00", "value": 0.5, "unit": "µg/mL"},
      {"measurement": "gent MIC", "setting": "[2]; KpGent strain MGH_30", "value": 1, "unit": "µg/mL"},
      {"measurement": "gent MIC", "setting": "[2]; KpGent strain MGH_35", "value": ">16", "unit": "µg/mL"},
      {"measurement": "gent MIC", "setting": "[2]; KpGent strain MGH_63", "value": ">16", "unit": "µg/mL"},
      {"measurement": "gent MIC", "setting": "[2]; KpGent strain RB012", "value": 32, "unit": "µg/mL"},
      {"measurement": "gent MIC", "setting": "[2]; KpGent strain RB040", "value": 0.5, "unit": "µg/mL"},
      {"measurement": "gent MIC", "setting": "[2]; KpGent strain RB042", "value": 2, "unit": "µg/mL"},
      {"measurement": "gent MIC", "setting": "[2]; KpGent strain RB121", "value": 1, "unit": "µg/mL"},
      {"measurement": "gent MIC", "setting": "[2]; KpGent strain RB122", "value": 128, "unit": "µg/mL"},
      {"measurement": "gent MIC", "setting": "[2]; KpGent strain UCI_7", "value": 0.5, "unit": "µg/mL"},
      {"measurement": "gent MIC", "setting": "[2]; KpGent strain UCI_13", "value": 0.5, "unit": "µg/mL"},
      {"measurement": "gent MIC", "setting": "[2]; KpGent strain UCI_37", "value": 16, "unit": "µg/mL"},
      {"measurement": "gent MIC", "setting": "[2]; KpGent strain UCI_63", "value": 4, "unit": "µg/mL"},
      {"measurement": "gent MIC", "setting": "[2]; KpGent strain UCI_67", "value": 8, "unit": "µg/mL"},
      {"measurement": "Gene ontology enrichment of antibiotic-responsive transcripts", "setting": "[3]", "value": "induced the unfolded protein response and quinone binding"},
      {"measurement": "Gene ontology enrichment of antibiotic-responsive transcripts", "setting": "[4]", "value": "induced the unfolded protein response and quinone binding"},
      {"measurement": "gent MIC", "setting": "[5]; E. coli strain AR0055", "value": 64, "unit": "µg/mL"},
      {"measurement": "gent MIC", "setting": "[5]; E. coli strain AR0061", "value": 32, "unit": "µg/mL"},
      {"measurement": "gent MIC", "setting": "[5]; E. coli strain AR0081", "value": 0.5, "unit": "µg/mL"},
      {"measurement": "gent MIC", "setting": "[5]; E. coli strain AR0084", "value": 0.5, "unit": "µg/mL"},
      {"measurement": "gent MIC", "setting": "[5]; E. coli strain AR0085", "value": 2, "unit": "µg/mL"},
      {"measurement": "gent MIC", "setting": "[5]; E. coli strain BAA2469", "value": 64, "unit": "µg/mL"},
      {"measurement": "gent MIC", "setting": "[5]; E. coli strain BAC0800005647", "value": 1, "unit": "µg/mL"},
      {"measurement": "gent MIC", "setting": "[5]; E. coli strain IDR1300027657", "value": 64, "unit": "µg/mL"},
      {"measurement": "gent MIC", "setting": "[5]; E. coli strain IDR1300034680", "value": 1, "unit": "µg/mL"},
      {"measurement": "gent MIC", "setting": "[5]; E. coli strain IDR1600047120", "value": 64, "unit": "µg/mL"},
      {"measurement": "gent MIC", "setting": "[5]; E. coli strain MGH_57", "value": 0.5, "unit": "µg/mL"},
      {"measurement": "gent MIC", "setting": "[5]; E. coli strain RB001 (deriv_S)", "value": 1, "unit": "µg/mL"},
      {"measurement": "gent MIC", "setting": "[5]; E. coli strain RB051 (deriv_R)", "value": 256, "unit": "µg/mL"},
      {"measurement": "gent MIC", "setting": "[5]; E. coli strain RB057 (deriv_R)", "value": 256, "unit": "µg/mL"},
      {"measurement": "gent MIC", "setting": "[5]; E. coli strain RB075 (deriv_S)", "value": 0.5, "unit": "µg/mL"},
      {"measurement": "gent MIC", "setting": "[5]; E. coli strain RB765", "value": 64, "unit": "µg/mL"},
      {"measurement": "gent MIC", "setting": "[5]; E. coli, printed on the continuation line of strain RB075, above RB076, strain unclear", "value": 1, "unit": "µg/mL"},
      {"measurement": "gent MIC", "setting": "[6]; A. baumannii strain AR0033", "value": 32, "unit": "µg/mL"},
      {"measurement": "gent MIC", "setting": "[6]; A. baumannii strain AR0035", "value": 16, "unit": "µg/mL"},
      {"measurement": "gent MIC", "setting": "[6]; A. baumannii strain AR0037", "value": ">32", "unit": "µg/mL"},
      {"measurement": "gent MIC", "setting": "[6]; A. baumannii strain AR0045", "value": ">32", "unit": "µg/mL"},
      {"measurement": "gent MIC", "setting": "[6]; A. baumannii strain AR0052", "value": 32, "unit": "µg/mL"},
      {"measurement": "gent MIC", "setting": "[6]; A. baumannii strain AR0056", "value": ">32", "unit": "µg/mL"},
      {"measurement": "gent MIC", "setting": "[6]; A. baumannii strain AR0063", "value": 4, "unit": "µg/mL"},
      {"measurement": "gent MIC", "setting": "[6]; A. baumannii strain AR0070", "value": ">32", "unit": "µg/mL"},
      {"measurement": "gent MIC", "setting": "[6]; A. baumannii strain AR0078", "value": ">32", "unit": "µg/mL"},
      {"measurement": "gent MIC", "setting": "[6]; A. baumannii strain AR0101", "value": 8, "unit": "µg/mL"},
      {"measurement": "gent MIC", "setting": "[6]; A. baumannii strain AR0102", "value": ">32", "unit": "µg/mL"},
      {"measurement": "gent MIC", "setting": "[6]; A. baumannii strain ATCC 17978", "value": "≤0.5", "unit": "µg/mL"},
      {"measurement": "gent MIC", "setting": "[6]; A. baumannii strain RB197 (deriv_S)", "value": "≤0.5", "unit": "µg/mL"},
      {"measurement": "gent MIC", "setting": "[6]; A. baumannii strain RB198", "value": 32, "unit": "µg/mL"},
      {"measurement": "gent MIC", "setting": "[6]; A. baumannii strain RB200 (deriv_R)", "value": ">32", "unit": "µg/mL"},
      {"measurement": "gent MIC", "setting": "[6]; A. baumannii strain RB201", "value": 1, "unit": "µg/mL"},
      {"measurement": "gent MIC", "setting": "[6]; A. baumannii strain RB202", "value": ">32", "unit": "µg/mL"},
      {"measurement": "gent MIC", "setting": "[6]; A. baumannii strain RB203", "value": 4, "unit": "µg/mL"},
      {"measurement": "gent MIC", "setting": "[6]; A. baumannii strain RB204 (deriv_R)", "value": ">32", "unit": "µg/mL"},
      {"measurement": "gent MIC", "setting": "[6]; A. baumannii strain RB205 (deriv_S)", "value": 2, "unit": "µg/mL"},
      {"measurement": "gent MIC", "setting": "[6]; A. baumannii strain RB206", "value": ">32", "unit": "µg/mL"}
    ]}
  ]
}
